pIC50: −log10 of the molar value.
Target: T1, PD-1/PD-L1 (Homo sapiens, UniProt Q9NZQ7)
T1 construct: Recombinant human PD-L1 protein (19-238) with a His-tag at the C-terminus; purchased AcroBiosystems PD1-H5229 (PD-L1); PD1-H5257 (PD-1)
Test: PD-1/PD-L1 homogenous time-resolved fluorescence (HTRF) binding assay
Settings: Table 6, class symbols
Procedure: Resolved Fluorescence (HTRF) Binding Assay
The assays were conducted in a standard black 384-well polystyrene plate with a final volume of 20 μL. Inhibitors were first serially diluted in DMSO and then added to the plate wells before the addition of other reaction components. The final concentration of DMSO in the assay was 1%. The assays were carried out at 25° C. in the PBS buffer (pH 7.4) with 0.05% Tween-20 and 0.1% BSA. Recombinant human PD-L1 protein (19-238) with a His-tag at the C-terminus was purchased from AcroBiosy stems (PD1-H5229). Recombinant human PD-1 protein (25-167) with Fc tag at the C-terminus was also purchased from AcroBiosystems (PD1-H5257). PD-L1 and PD-1 proteins were diluted in the assay buffer and 10 μL was added to the plate well. Plates were centrifuged and proteins were preincubated with inhibitors for 40 min. The incubation was followed by the addition of 10 μL of HTRF detection buffer supplemented with Europium cryptate-labeled anti-human IgG (PerkinElmer-AD0212) specific for Fc and anti-His antibody conjugated to SureLight®-Allophycocyanin (APC, PerkinElmer-AD0059H). After centrifugation, the plate was incubated at 25° C. for 60 min. Before reading on a PHERAstar FS plate reader (665 nm/620 nm ratio). Final concentrations in the assay were […] PD1, 10 nM PD-L1, 1 nM europium anti-human IgG and 20 nM anti-His-Allophycocyanin. IC50 determination was performed by fitting the curve of percent control activity versus the log of the inhibitor concentration using the GraphPad Prism 5.0 software.

T1 sequence (Q9NZQ7 19-238): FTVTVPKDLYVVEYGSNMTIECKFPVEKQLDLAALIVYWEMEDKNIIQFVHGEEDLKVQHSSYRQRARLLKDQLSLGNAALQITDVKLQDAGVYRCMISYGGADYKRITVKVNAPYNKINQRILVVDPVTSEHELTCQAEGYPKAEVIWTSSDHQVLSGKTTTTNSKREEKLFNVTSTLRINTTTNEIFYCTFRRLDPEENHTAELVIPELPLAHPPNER

Question: N#Cc1ccccc1-c1cccc(-c2nc3cc(CN4CCC[C@H]4C(=O)O)c(OC(F)F)cc3o2)c1C#N [Example 45, ((2-(2,2′-dicyano-[1,1′-biphenyl]-3-yl)-6-(difluoromethoxy)benzo[d]oxazol-5-yl)methyl)-L-proline] was tested. Which pIC50 did it give?
Answer: The pIC50 was 7.00 to 8.00.

Question: How did the pIC50 turn out when N#Cc1c(-c2ccccc2)cccc1-c1nc2cc(CN3CCC[C@H]3C(=O)O)c(OC(F)F)cc2o1 [Example 44, ((2-(2-cyano-[1,1′-biphenyl]-3-yl)-6-(difluoromethoxy)benzo[d]oxazol-5-yl)methyl)-L-proline] was run?
Answer: The pIC50 was 8.00 to 10.00.

Question: How did the pIC50 turn out when Cc1c(-c2ccccc2)cccc1-c1nc2cc(CN[C@H](C)C(=O)O)c(OC(F)F)cc2o1 [Example 34, ((6-(difluoromethoxy)-2-(2-methyl-[1,1′-biphenyl]-3-yl)benzo[d]oxazol-5-yl)methyl)-D-alanine] was run?
Answer: The pIC50 was 7.00 to 8.00.

Question: Cc1c(-c2ccccc2)cccc1-c1nc2cc(CN3CC[C@H](O)C3)c(F)cc2o1 [Example 23, (S)-1-((6-fluoro-2-(2-methyl-[1,1′-biphenyl]-3-yl)benzo[d]oxazol-5-yl)methyl)pyrrolidin-3-ol] was tested. Which pIC50 did it give?
Answer: Its pIC50 is 7.00 to 8.00.

Question: With Cc1cc2oc(-c3cccc(-c4ccccc4)c3C#N)nc2cc1CN1CCOC[C@H]1C(=O)O [Example 19, (S)-4-((2-(2-cyano-[1,1′-biphenyl]-3-yl)-6-methylbenzo[d]oxazol-5-yl)methyl)morpholine-3-carboxylic acid] as the compound, how does the pIC50 read?
Answer: The pIC50 was 8.00 to 10.00.

Question: CSc1cc2oc(-c3cccc(-c4ccccc4)c3C)nc2cc1CN1CCCCC1CO (stereo not shown) [Example 8, (1-((2-(2-methyl-[1,1′-biphenyl]-3-yl)-6-(methylthio)benzo[d]oxazol-5-yl)methyl)piperidin-2-yl)methanol] was tested. Which pIC50 did it give?
Answer: Its pIC50 is 7.00 to 8.00.

Question: With CSc1cc2oc(-c3cccc(-c4ccccc4)c3C)nc2cc1CN[C@H](C(=O)O)[C@H](C)O [Example 4, ((2-(2-methyl-[1,1′-biphenyl]-3-yl)-6-(methylthio)benzo[d]oxazol-5-yl)methyl)-L-allothreonine] as the compound, how does the pIC50 read?
Answer: Its pIC50 is 8.00 to 10.00.

Question: How did the pIC50 turn out when CC[C@@H](NCc1cc2nc(-c3cccc(-c4ccccc4)c3C)oc2cc1OC(F)F)C(=O)O [Example 41, (R)-2-(((6-(difluoromethoxy)-2-(2-methyl-[1,1′-biphenyl]-3-yl)benzo[d]oxazol-5-yl)methyl)amino)butanoic acid] was run?
Answer: The pIC50 was 7.00 to 8.00.

Question: How did the pIC50 turn out when Cc1c(-c2ccccc2)cccc1-c1nc2cc(CN3CCCCC3CO)c(OC(F)F)cc2o1 (stereo not shown) [Example 38, (1-((6-(difluoromethoxy)-2-(2-methyl-[1,1′-biphenyl]-3-yl)benzo[d]oxazol-5-yl)methyl)piperidin-2-yl)methanol] was run?
Answer: Its pIC50 is 8.00 to 10.00.

Question: How did the pIC50 turn out when Cc1c(-c2ccccc2)cccc1-c1nc2cc(CNCC(=O)O)c(OC(F)F)cc2o1 [Example 35, ((6-(difluoromethoxy)-2-(2-methyl-[1,1′-biphenyl]-3-yl)benzo[d]oxazol-5-yl)methyl)glycine] was run?
Answer: Its pIC50 is 8.00 to 10.00.

Question: With N#Cc1c(-c2ccccc2)cccc1-c1nc2cc(CN3CCOC[C@H]3C(=O)O)c(OCC(F)(F)F)cc2o1 [Example 57, (S)-4-((2-(2-cyano-[1,1′-biphenyl]-3-yl)-6-(2,2,2-trifluoroethoxy)benzo[d]oxazol-5-yl)methyl)morpholine-3-carboxylic acid] as the compound, how does the pIC50 read?
Answer: Its pIC50 is 7.00 to 8.00.

Question: With Cc1c(-c2ccccc2)cccc1-c1nc2cc3c(cc2o1)OC[C@@H](C(=O)O)NC3 [Example 70, (S)-2-(2-methyl-[1,1′-biphenyl]-3-yl)-6,7,8,9-tetrahydrooxazolo[5′,4′:4,5]benzo[1,2-f][1,4]oxazepine-7-carboxylic acid] as the compound, how does the pIC50 read?
Answer: Its pIC50 is 6.00 to 7.00.

Question: With CSc1cc2oc(-c3cccc(-c4ccccc4)c3C)nc2cc1CN1CCC[C@@H]1C(=O)O [Example 7, ((2-(2-methyl-[1,1′-biphenyl]-3-yl)-6-(methylthio)benzo[d]oxazol-5-yl)methyl)-D-proline] as the compound, how does the pIC50 read?
Answer: Its pIC50 is 8.00 to 10.00.

Question: CSc1cc2oc(-c3cccc(-c4ccccc4)c3C)nc2cc1CN[C@H](C)C(=O)O [Example 6, ((2-(2-methyl-[1,1′-biphenyl]-3-yl)-6-(methylthio)benzo[d]oxazol-5-yl)methyl)-D-alanine] was tested. Which pIC50 did it give?
Answer: Its pIC50 is 7.00 to 8.00.

Question: How did the pIC50 turn out when Cc1c(-c2ccccc2)cccc1-c1nc2cc3c(cc2o1)OC[C@H](C(=O)O)NC3 [Example 72, (R)-2-(2-methyl-[1,1′-biphenyl]-3-yl)-6,7,8,9-tetrahydrooxazolo[5′,4′:4,5]benzo[1,2-f][1,4]oxazepine-7-carboxylic acid] was run?
Answer: The pIC50 was 6.00 to 7.00.

Question: How did the pIC50 turn out when Cc1c(-c2ccccc2)cccc1-c1nc2cc3c(cc2o1)OCCN(C)C3 [Example 67, 8-methyl-2-(2-methyl-[1,1′-biphenyl]-3-yl)-6,7,8,9-tetrahydrooxazolo[5′,4′:4,5]benzo[1,2-f][1,4]oxazepine] was run?
Answer: Its pIC50 is 6.00 to 7.00.

Question: Cc1c(-c2ccccc2)cccc1-c1nc2cc(CN[C@@H](C)C(=O)O)c(OCC(F)(F)F)cc2o1 [Example 59, ((2-(2-methyl-[1,1′-biphenyl]-3-yl)-6-(2,2,2-trifluoroethoxy)benzo[d]oxazol-5-yl)methyl)-L-alanine] was tested. Which pIC50 did it give?
Answer: The pIC50 was 7.00 to 8.00.

Question: With Cc1c(-c2ccccc2)cccc1-c1nc2cc(CN3CCC[C@H]3C(=O)O)c(O)cc2o1 [Example 21, ((6-hydroxy-2-(2-methyl-[1,1′-biphenyl]-3-yl)benzo[d]oxazol-5-yl)methyl)-L-proline] as the compound, how does the pIC50 read?
Answer: The pIC50 was 7.00 to 8.00.

Question: With Cc1c(-c2ccccc2)cccc1-c1nc2cc(CN3CCCC3(C)C(=O)O)c(OC(F)F)cc2o1 (stereo not shown) [Example 50, 1-((6-(difluoromethoxy)-2-(2-methyl-[1,1′-biphenyl]-3-yl)benzo[d]oxazol-5-yl)methyl)-2-methylpyrrolidine-2-carboxylic acid] as the compound, how does the pIC50 read?
Answer: Its pIC50 is 8.00 to 10.00.

Question: How did the pIC50 turn out when Cc1c(-c2ccccc2)cccc1-c1nc2cc(CN[C@@H](C)C(=O)O)c(OC(F)F)cc2o1 [Example 33, ((6-(difluoromethoxy)-2-(2-methyl-[1,1′-biphenyl]-3-yl)benzo[d]oxazol-5-yl)methyl)-L-alanine] was run?
Answer: Its pIC50 is 8.00 to 10.00.

Question: How did the pIC50 turn out when CC[C@H](NCc1cc2nc(-c3cccc(-c4ccccc4)c3C)oc2cc1OC(F)F)C(=O)O [Example 40, (S)-2-(((6-(difluoromethoxy)-2-(2-methyl-[1,1′-biphenyl]-3-yl)benzo[d]oxazol-5-yl)methyl)amino)butanoic acid] was run?
Answer: The pIC50 was 8.00 to 10.00.

Question: How did the pIC50 turn out when CSc1cc2oc(-c3cccc(-c4ccccc4C#N)c3C#N)nc2cc1CN1CCC[C@H]1C(=O)O [Example 15, ((2-(2,2′-dicyano-[1,1′-biphenyl]-3-yl)-6-(methylthio)benzo[d]oxazol-5-yl)methyl)-L-proline] was run?
Answer: The pIC50 was 7.00 to 8.00.

Question: How did the pIC50 turn out when Cc1c(-c2ccccc2)cccc1-c1nc2cc3c(cc2o1)OCCN(CC(=O)O)C3 [Example 71, 2-(2-(2-methyl-[1,1′-biphenyl]-3-yl)-6,7-dihydrooxazolo[5′,4′:4,5]benzo[1,2-f][1,4]oxazepin-8(9H)-yl)acetic acid] was run?
Answer: The pIC50 was 6.00 to 7.00.

Question: How did the pIC50 turn out when Cc1c(-c2ccccc2)cccc1-c1nc2cc(CN3CCC[C@H]3C(=O)O)c(OCC(F)(F)F)cc2o1 [Example 60, ((2-(2-methyl-[1,1′-biphenyl]-3-yl)-6-(2,2,2-trifluoroethoxy)benzo[d]oxazol-5-yl)methyl)-L-proline] was run?
Answer: The pIC50 was 7.00 to 8.00.

Question: Cc1c(-c2ccccc2)cccc1-c1nc2cc(CN3CCCCC3C(=O)O)c(OCC(F)F)cc2o1 (stereo not shown) [Example 55, 1-((6-(2,2-difluoroethoxy)-2-(2-methyl-[1,1′-biphenyl]-3-yl)benzo[d]oxazol-5-yl)methyl)piperidine-2-carboxylic acid] was tested. Which pIC50 did it give?
Answer: The pIC50 was 7.00 to 8.00.

Question: With Cc1c(-c2ccccc2)cccc1-c1nc2cc(CN3CCCC3(C)C(=O)O)c(OCC(F)(F)F)cc2o1 (stereo not shown) [Example 61, 2-methyl-1-((2-(2-methyl-[1,1′-biphenyl]-3-yl)-6-(2,2,2-trifluoroethoxy)benzo[d]oxazol-5-yl)methyl)pyrrolidine-2-carboxylic acid] as the compound, how does the pIC50 read?
Answer: Its pIC50 is 7.00 to 8.00.

Question: How did the pIC50 turn out when CSc1cc2oc(-c3cccc(-c4ccccc4)c3C)nc2cc1CN[C@@H](C)C(=O)O [Example 5, ((2-(2-methyl-[1,1′-biphenyl]-3-yl)-6-(methylthio)benzo[d]oxazol-5-yl)methyl)-L-alanine] was run?
Answer: Its pIC50 is 8.00 to 10.00.

Question: How did the pIC50 turn out when CC[C@H](NCc1cc2nc(-c3cccc(-c4ccccc4)c3C)oc2cc1SC)C(=O)O [Example 10, (S)-2-(((2-(2-methyl-[1,1′-biphenyl]-3-yl)-6-(methylthio)benzo[d]oxazol-5-yl)methyl)amino)butanoic acid] was run?
Answer: The pIC50 was 8.00 to 10.00.

Same assay, conditions: Table 6, numeric values

Question: How did the pIC50 turn out when Cc1c(-c2ccccc2)cccc1-c1nc2cc(CN[C@H](CO)C(=O)O)c(OC(F)F)cc2o1 [Example 42, ((6-(difluoromethoxy)-2-(2-methyl-[1,1′-biphenyl]-3-yl)benzo[d]oxazol-5-yl)methyl)-D-serine] was run?
Answer: Its pIC50 is 8.47.

Question: With Cc1c(-c2ccccc2)cccc1-c1nc2cc(CN3CCC[C@H]3C(=O)O)c([S+](C)[O-])cc2o1 (stereo partly drawn) [Example 65, ((2-(2-methyl-[1,1′-biphenyl]-3-yl)-6-(methylsulfinyl)benzo[d]oxazol-5-yl)methyl)-L-proline] as the compound, how does the pIC50 read?
Answer: Its pIC50 is 8.30.

Question: With Cc1c(-c2ccccc2)cccc1-c1nc2cc(CN[C@@H](CO)C(=O)O)c(OC(F)F)cc2o1 [Example 43, ((6-(difluoromethoxy)-2-(2-methyl-[1,1′-biphenyl]-3-yl)benzo[d]oxazol-5-yl)methyl)-L-serine] as the compound, how does the pIC50 read?
Answer: The pIC50 was 8.74.

Reference: patent US20220041583A1, “IMMUNOMODULATORS, COMPOSITIONS AND METHODS THERE OF” (BETTA PHARMACEUTICALS CO., LTD, priority 2018, published 2022)
